# Measurements from ChEMBL document CHEMBL5532682, “Recent advances of tryptanthrin and its derivatives as potential anticancer agents” (RSC Med Chem, 2024).
# Tests used:
# NCI/ADR-RES [1] = experiment: Antiproliferative activity against human MCF7ADR cells; type: functional, cell-based
# MCF7 [2] = experiment: Antiproliferative activity against human MCF7 cells; type: functional, cell-based
# T-24 [3] = experiment: Antiproliferative activity against human T24 cells assessed as inhibition of cell growth; type: functional, cell-based
# HeLa [4] = experiment: Antiproliferative activity against human HeLa cells assessed as cell growth inhibition; type: functional, cell-based
# SK-OV-3 [5] = experiment: Cytotoxicity against human SK-OV-3 cells measured after 3 days by MTT assay; type: functional, cell-based; conditions: SK-OV-3, 72 h
# SK-OV-3 [6] = experiment: Antiproliferative activity against human SK-OV-3 cells assessed as inhibition of cell growth; type: functional, cell-based
# HepG2 [7] = experiment: Antiproliferative activity against human HepG2 cells assessed as inhibition of cell growth; type: functional, cell-based
# MCF7 [8] = experiment: Cytotoxicity against human MCF7 cells measured after 3 days by MTT assay; type: functional, cell-based; conditions: MCF7, 72 h
# Hep 3B2 [9] = experiment: Antiproliferative activity against human Hep3B cells measured after 48 hrs by MTT assay; type: functional, cell-based
# A498 [10] = experiment: Cytotoxicity against human A498 cells measured after 3 days by MTT assay; type: functional, cell-based; conditions: A498, 72 h
# A549 [11] = experiment: Antiproliferative activity against human A549 cells assessed as cell growth inhibition; type: functional, cell-based
# [12] = Antiproliferative activity against human HL7702 cells assessed as inhibition of cell growth; type: toxicity, cell-based; conditions: HL7702 (L02) cells
# [13] = Antiproliferative activity against human HL7702 cells assessed as inhibition of cell viability; type: toxicity, cell-based; conditions: HL7702 (L02) cells
# A549 [14] = experiment: Antiproliferative activity against human A549 cells assessed as inhibition of cell viability; type: functional, cell-based
# A549/CDDP = experiment: Antiproliferative activity against human A549/DDP cells assessed as inhibition of cell viability; type: functional, cell-based
# M14 = experiment: Growth inhibition of human M14 cells assessed as reduction in cell viability; type: functional
# A549 [15] = experiment: Antiproliferative activity against human A549 cells incubated by 48 hrs by MTT assay; type: functional, cell-based; conditions: A549, 48 h
# HepG2 [16] = experiment: Antiproliferative activity against human HepG2 cells incubated by 48 hrs by MTT assay; type: functional, cell-based; conditions: HepG2, 48 h
# NCI-H522 = experiment: Growth inhibition of human NCI-H522 cells assessed as reduction in cell viability; type: functional
# Hep 3B2 [17] = experiment: Anticancer activity against human Hep3B cells measured after 48 hrs; type: functional, cell-based
# SW-620 = experiment: Growth inhibition of human SW620 cells assessed as reduction in cell viability; type: functional
# NCI/ADR-RES [18] = experiment: Growth inhibition of human MCF7ADR cells assessed as reduction in cell viability; type: functional
# PC-3 = experiment: Antiproliferative activity against human PC-3 cells incubated by 48 hrs by MTT assay; type: functional, cell-based; conditions: PC-3, 48 h
# K562 [19] = experiment: Antiproliferative activity against human K562 cells incubated by 48 hrs by MTT assay; type: functional, cell-based; conditions: K562, 48 h
# DU-145 = experiment: Growth inhibition of human DU-145 cells assessed as reduction in cell viability; type: functional
# [20] = Antiproliferative activity against human LX-2 cells; type: toxicity, cell-based
# U-251 = experiment: Growth inhibition of human U-251 cells assessed as reduction in cell viability; type: functional
# SK-OV-3 [21] = experiment: Growth inhibition of human SK-OV-3 cells assessed as reduction in cell viability; type: functional
# HeLa [22] = experiment: Antiproliferative activity against human HeLa cells; type: functional, cell-based
# B16-F10 = experiment: Antiproliferative activity against mouse B16-F10 cells; type: functional, cell-based
# A498 [23] = experiment: Growth inhibition of human A498 cells assessed as reduction in cell viability; type: functional
# HeLa [24] = experiment: Antiproliferative activity against human HeLa cells incubated for 48 hrs; type: functional, cell-based
# K562 [25] = experiment: Antiproliferative activity against human K562 cells incubated for 48 hrs; type: functional, cell-based; conditions: K562, 48 h
# CT26 = experiment: Antiproliferative activity against mouse CT26 cells incubated for 48 hrs; type: functional, cell-based; conditions: CT26, 48 h
# K562 [26] = experiment: Antiproliferative activity against human K562 cells; type: functional, cell-based
# Bel-7402 = experiment: Antiproliferative activity against human Bel-7402 cells measured after 48 hrs by MTT assay; type: functional, cell-based; conditions: Bel-7402, 48 h
# HepG2 [27] = experiment: Antiproliferative activity against human HepG2 cells measured after 48 hrs by MTT assay; type: functional, cell-based; conditions: HepG2, 48 h
# T-24 [28] = experiment: Antiproliferative activity against human T24 cells measured after 48 hrs by MTT assay; type: functional, cell-based; conditions: T-24, 48 h
# HL-60 = experiment: Anticancer activity against human HL-60 cells measured after 48 hrs; type: functional, cell-based; conditions: HL-60, 48 h
# MOLT-4 = experiment: Anticancer activity against human MOLT-4 cells measured after 48 hrs; type: functional, cell-based; conditions: MOLT-4, 48 h
# MGC-803 = experiment: Antiproliferative activity against human MGC-803 cells measured after 48 hrs by MTT assay; type: functional, cell-based; conditions: MGC-803, 48 h
# K562 [29] = experiment: Anticancer activity against human K562 cells measured after 48 hrs; type: functional, cell-based; conditions: K562, 48 h
# [30] = Antiproliferative activity against human HL7702 cells measured after 48 hrs by MTT assay; type: toxicity, cell-based; conditions: HL7702 (L02) cells
# A549 [31] = experiment: Antiproliferative activity against human A549 cells measured after 48 hrs by MTT assay; type: functional, cell-based; conditions: A549, 48 h
# A549 [32] = experiment: Antiproliferative activity against human A549 cells; type: functional, cell-based
# MDA-MB-231 = experiment: Antiproliferative activity against human MDA-MB-231 cells measured after 48 hrs by MTT assay; type: functional, cell-based; conditions: MDA-MB-231, 48 h
# [33] = Antiproliferative activity against mouse MC3T3-E1 cells; type: toxicity, cell-based
# HCT-116 = experiment: Antiproliferative activity against human HCT-116 cells measured after 48 hrs by MTT assay; type: functional, cell-based; conditions: HCT-116, 48 h
# WEHI3B = experiment: Antiproliferative activity against mouse WEHI3B cells assessed as inhibition of cell growth measured after 48 hrs; type: functional, cell-based
structure (smiles),measurement,setting,value
O=c1c2ccccc2nc2n1-c1ccccc1/C2=N\O,IC50,NCI/ADR-RES [1],75.3 µM
same,IC50,MCF7 [2],82.1 µM
O=C1c2cc(I)ccc2-n2c1nc1ccccc1c2=O,IC50,T-24 [3],85.2 µM
same,IC50,HeLa [4],> 150 µM
same,IC50,SK-OV-3 [5],0.65 µM
same,IC50,SK-OV-3 [6],79.1 µM
same,IC50,HepG2 [7],88.6 µM
same,IC50,MCF7 [8],1.5 µM
same,IC50,Hep 3B2 [9],2.4 µM
same,IC50,A498 [10],1.86 µM
same,IC50,A549 [11],> 150 µM
same,IC50,[12],94.1 µM
c1ccc(CNCc2ccccn2)nc1,IC50,[13],> 100 µM
same,IC50,A549 [14],> 100 µM
same,IC50,A549/CDDP,> 100 µM
N/N=C1/c2cc(F)ccc2-n2c1nc1ccccc1c2=O,IC50,SK-OV-3 [5],8.51 µM
same,IC50,MCF7 [8],1.4 µM
same,IC50,A498 [10],1.26 µM
O=C1c2cc([N+](=O)[O-])ccc2-n2c1nc1ccccc1c2=O,GI50,M14,0.8 µM
same,IC50,A549 [15],6.88 µM
same,IC50,HepG2 [16],7.89 µM
same,GI50,NCI-H522,0.7 µM
same,IC50,Hep 3B2 [17],1.4 µM
same,GI50,SW-620,4 µM
same,GI50,NCI/ADR-RES [18],0.7 µM
same,IC50,PC-3,11.8 µM
same,IC50,K562 [19],8.05 µM
same,GI50,DU-145,0.15 µM
same,IC50,[20],0.83 µM
same,GI50,U-251,> 100 µM
same,GI50,SK-OV-3 [21],5 µM
same,IC50,HeLa [22],0.34 µM
same,IC50,B16-F10,0.49 µM
same,GI50,A498 [23],3 µM
C=C[C@@H]1[C@@]2(c3ccccc3)[C@H]3CCCN3[C@@]3(c4ccccc4-n4c3nc3ccccc3c4=O)[C@@]12c1ccccc1,IC50,HeLa [24],> 50 µM
same,IC50,K562 [25],> 50 µM
same,IC50,CT26,10 µM
O=C(CCCCN(Cc1ccccn1)Cc1ccccn1)Nc1ccc2c(c1)C(=O)c1nc3ccccc3c(=O)n1-2,IC50,[13],> 100 µM
same,IC50,A549 [14],63.7 µM
same,IC50,A549/CDDP,52.4 µM
Cc1ccc2c(c1)[C@@]1(N[C@H](C(=O)NCC(=O)O)[C@]3(c4ccccc4)[C@@H](c4ccccc4)[C@]13c1ccccc1)c1nc3ccccc3c(=O)n1-2,IC50,HeLa [24],> 50 µM
same,IC50,K562 [25],10.2 µM
same,IC50,CT26,> 50 µM
O=C(O)CNC(=O)[C@H]1N[C@@]2(c3ccccc3-n3c2nc2ccccc2c3=O)[C@@]2(c3ccccc3)[C@H](c3ccccc3)[C@@]12c1ccccc1,IC50,HeLa [24],33 µM
same,IC50,K562 [25],> 50 µM
same,IC50,CT26,10 µM
CC(C)NC(=O)[C@@H]1[C@@]2(c3ccccc3)[C@H]3CCCN3[C@@]3(c4ccccc4-n4c3nc3ccccc3c4=O)[C@@]12c1ccccc1,IC50,HeLa [24],> 50 µM
same,IC50,K562 [25],4.8 µM
same,IC50,CT26,> 50 µM
same,IC50,K562 [26],4.8 µM
O=C1c2cc(Br)ccc2-n2c1nc1ccccc1c2=O,GI50,M14,5 µM
same,IC50,T-24 [3],94.1 µM
same,IC50,HeLa [4],> 150 µM
same,GI50,NCI-H522,5 µM
same,IC50,Bel-7402,27.2 µM
same,IC50,HepG2 [27],99.6 µM
same,GI50,SW-620,4.8 µM
same,IC50,SK-OV-3 [6],89.6 µM
same,GI50,NCI/ADR-RES [18],5 µM
same,IC50,HepG2 [7],89.6 µM
same,IC50,T-24 [28],15.1 µM
same,IC50,HL-60,2 µM
same,GI50,DU-145,2 µM
same,IC50,MOLT-4,8 µM
same,IC50,Hep 3B2 [9],2 µM
same,IC50,MGC-803,59.1 µM
same,IC50,K562 [29],5 µM
same,IC50,A549 [11],89.6 µM
same,GI50,U-251,0.7 µM
same,IC50,[12],50.1 µM
same,IC50 at 48 h,[30],50.1 µM
COc1cc(/C=C/C(=O)CC(=O)/C=C/c2ccc(O)c(OC)c2)ccc1O [CURCUMIN],IC50,[13],> 100 µM
same,IC50,A549 [14],35.8 µM
same,IC50,A549/CDDP,67.2 µM
O=C1c2ccccc2-n2c1nc1ccccc1c2=O [TRYPTANTHRIN],IC50,T-24 [3],> 150 µM
same,IC50,HeLa [4],> 150 µM
same,IC50,A549 [15],8.25 µM
same,IC50,A549 [31],74.7 µM
same,IC50,NCI/ADR-RES [1],96.4 µM
same,IC50,HepG2 [16],9.51 µM
same,IC50,A549 [32],74.7 µM
same,IC50,Bel-7402,41.3 µM
same,IC50,HepG2 [27],90.1 µM
same,IC50,SK-OV-3 [6],85.1 µM
same,IC50,HepG2 [7],90.1 µM
same,IC50,[13],> 100 µM
same,IC50,T-24 [28],> 150 µM
same,IC50,PC-3,14.5 µM
same,IC50,K562 [19],12 µM
same,IC50,MDA-MB-231,> 100 µM
same,IC50,[33],> 100 µM
same,IC50,A549 [14],> 100 µM
same,IC50,MGC-803,70.2 µM
same,IC50,A549/CDDP,> 100 µM
same,IC50,A549 [11],> 150 µM
same,IC50,HCT-116,17.5 µM
same,IC50,[12],90.1 µM
same,IC50,WEHI3B,1.5 µM
same,IC50,MCF7 [2],94.2 µM
same,IC50 at 48 h,[30],90.1 µM
